# Calls of active or inactive are those of the source. No cut-off for these calls is given here.
# Assays:
# Amaranthus retroflexus [1] = test: Post-emergence herbicidal activity against one-leaf stage Amaranthus retroflexus under greenhouse condition assessed as complete bleaching of leaves at 60 g /ha measured after 24 days by spray method; assay type: functional, organism-based
# [2] = system: Brassica rapa subsp. oleifera; test: Post-emergence herbicidal activity against one-leaf stage Brassica rapa subsp. oleifera under greenhouse condition at 30 g /ha measured after 24 days by spray method; assay type: functional; conditions: 576 h, read-out: GI
# Echinochloa crus-galli [3] = test: Pre-emergence herbicidal activity against Echinochloa crus-galli (barnyard grass) under greenhouse condition at 750 g /ha measured after 24 days by spray method; assay type: functional; conditions: 576 h, read-out: GI
# Amaranthus retroflexus [4] = test: Post-emergence herbicidal activity against one-leaf stage Amaranthus retroflexus under greenhouse condition at 60 g /ha measured after 24 days by spray method; assay type: functional; conditions: 576 h, read-out: GI
# [5] = system: Brassica rapa subsp. oleifera; test: Post-emergence herbicidal activity against one-leaf stage Brassica rapa subsp. oleifera under greenhouse condition at 600 g /ha measured after 24 days by spray method; assay type: functional; conditions: 576 h, read-out: GI
# Digitaria [6] = test: Pre-emergence herbicidal activity against Digitaria adscendens under greenhouse condition at 750 g /ha measured after 24 days by spray method; assay type: functional; conditions: in Digitaria adscendens, 576 h, read-out: GI
# Amaranthus retroflexus [7] = test: Post-emergence herbicidal activity against one-leaf stage Amaranthus retroflexus under greenhouse condition at 30 g /ha measured after 24 days by spray method; assay type: functional; conditions: 576 h, read-out: GI
# Amaranthus retroflexus [8] = test: Post-emergence herbicidal activity against one-leaf stage Amaranthus retroflexus under greenhouse condition assessed as complete bleaching of leaves at 15 g /ha measured after 24 days by spray method; assay type: functional, organism-based
# Amaranthus retroflexus [9] = test: Post-emergence herbicidal activity against one-leaf stage of Amaranthus retroflexus under greenhouse condition at 750 g /ha measured after 24 days by spray method; assay type: functional; conditions: 576 h, read-out: GI
# [10] = system: Brassica rapa subsp. oleifera; test: Post-emergence herbicidal activity against one-leaf stage Brassica rapa subsp. oleifera under greenhouse condition assessed as complete bleaching of leaves at 30 g /ha measured after 24 days by spray method; assay type: functional, organism-based
# [11] = system: Brassica rapa subsp. oleifera; test: Post-emergence herbicidal activity against one-leaf stage Brassica rapa subsp. oleifera under greenhouse condition at 300 g /ha measured after 24 days by spray method; assay type: functional; conditions: 576 h, read-out: GI
# [12] = system: Brassica rapa subsp. oleifera; test: Post-emergence herbicidal activity against one-leaf stage Brassica rapa subsp. oleifera under greenhouse condition at 7.5 g /ha measured after 24 days by spray method; assay type: functional; conditions: 576 h, read-out: GI
# [13] = system: Brassica rapa subsp. oleifera; test: Post-emergence herbicidal activity against one-leaf stage Brassica rapa subsp. oleifera under greenhouse condition assessed as complete bleaching of leaves at 300 g /ha measured after 24 days by spray method; assay type: functional, organism-based
# [14] = system: Brassica rapa subsp. oleifera; test: Post-emergence herbicidal activity against one-leaf stage Brassica rapa subsp. oleifera under greenhouse condition at 750 g /ha measured after 24 days by spray method; assay type: functional; conditions: 576 h, read-out: GI
# Amaranthus retroflexus [15] = test: Post-emergence herbicidal activity against one-leaf stage Amaranthus retroflexus under greenhouse condition assessed as complete bleaching of leaves at 30 g /ha measured after 24 days by spray method; assay type: functional, organism-based
# [16] = system: Brassica rapa subsp. oleifera; test: Post-emergence herbicidal activity against one-leaf stage Brassica rapa subsp. oleifera under greenhouse condition at 60 g /ha measured after 24 days by spray method; assay type: functional; conditions: 576 h, read-out: GI
# Spirodela polyrhiza [17] = test: Bleaching herbicidal activity in Spirodela polyrhiza fronds cultured in compound-containing in medium assessed as chlorophyll inhibition at 1 ug/ml after 7 days; assay type: functional; conditions: 168 h
# [18] = system: Brassica rapa subsp. oleifera; test: Post-emergence herbicidal activity against one-leaf stage Brassica rapa subsp. oleifera under greenhouse condition at 15 g /ha measured after 24 days by spray method; assay type: functional; conditions: 576 h, read-out: GI
# [19] = system: Brassica rapa subsp. oleifera; test: Post-emergence herbicidal activity against one-leaf stage Brassica rapa subsp. oleifera under greenhouse condition at 75 g /ha measured after 24 days by spray method; assay type: functional; conditions: 576 h, read-out: GI
# Amaranthus retroflexus [20] = test: Post-emergence herbicidal activity against one-leaf stage Amaranthus retroflexus under greenhouse condition assessed as complete bleaching of leaves at 600 g /ha measured after 24 days by spray method; assay type: functional, organism-based
# [21] = system: Brassica rapa subsp. oleifera; test: Post-emergence herbicidal activity against one-leaf stage Brassica rapa subsp. oleifera under greenhouse condition assessed as complete bleaching of leaves at 600 g /ha measured after 24 days by spray method; assay type: functional, organism-based
# Amaranthus retroflexus [22] = test: Post-emergence herbicidal activity against one-leaf stage Amaranthus retroflexus under greenhouse condition at 7.5 g /ha measured after 24 days by spray method; assay type: functional; conditions: 576 h, read-out: GI
# [23] = system: Brassica rapa subsp. oleifera; test: Post-emergence herbicidal activity against one-leaf stage Brassica rapa subsp. oleifera under greenhouse condition assessed as complete bleaching of leaves at 60 g /ha measured after 24 days by spray method; assay type: functional, organism-based
# Amaranthus retroflexus [24] = test: Post-emergence herbicidal activity against one-leaf stage Amaranthus retroflexus under greenhouse condition at 600 g /ha measured after 24 days by spray method; assay type: functional; conditions: 576 h, read-out: GI
# [25] = system: Brassica rapa subsp. oleifera; test: Post-emergence herbicidal activity against one-leaf stage Brassica rapa subsp. oleifera under greenhouse condition assessed as complete bleaching of leaves at 15 g /ha measured after 24 days by spray method; assay type: functional, organism-based
# Spirodela polyrhiza [26] = test: Bleaching herbicidal activity in Spirodela polyrhiza fronds cultured in compound-containing in medium assessed as chlorophyll inhibition at 10 ug/ml after 7 days; assay type: functional; conditions: 168 h
# Amaranthus retroflexus [27] = test: Post-emergence herbicidal activity against one-leaf stage Amaranthus retroflexus under greenhouse condition assessed as complete bleaching of leaves at 75 g /ha measured after 24 days by spray method; assay type: functional, organism-based
# Amaranthus retroflexus [28] = test: Post-emergence herbicidal activity against one-leaf stage Amaranthus retroflexus under greenhouse condition assessed as complete bleaching of leaves at 7.5 g /ha measured after 24 days by spray method; assay type: functional, organism-based
# Digitaria [29] = test: Post-emergence herbicidal activity against one-leaf stage of Digitaria adscendens under greenhouse condition at 750 g /ha measured after 24 days by spray method; assay type: functional; conditions: in Digitaria adscendens, 576 h, read-out: GI
# Amaranthus retroflexus [30] = test: Post-emergence herbicidal activity against one-leaf stage Amaranthus retroflexus under greenhouse condition assessed as complete bleaching of leaves at 150 g /ha measured after 24 days by spray method; assay type: functional, organism-based
# [31] = system: Brassica rapa subsp. oleifera; test: Post-emergence herbicidal activity against one-leaf stage Brassica rapa subsp. oleifera under greenhouse condition assessed as complete bleaching of leaves at 75 g /ha measured after 24 days by spray method; assay type: functional, organism-based
# Amaranthus retroflexus [32] = test: Pre-emergence herbicidal activity against Amaranthus retroflexus under greenhouse condition at 750 g /ha measured after 24 days by spray method; assay type: functional; conditions: 576 h, read-out: GI
# [33] = system: Brassica rapa subsp. oleifera; test: Post-emergence herbicidal activity against one-leaf stage Brassica rapa subsp. oleifera under greenhouse condition assessed as complete bleaching of leaves at 7.5 g /ha measured after 24 days by spray method; assay type: functional, organism-based
# Amaranthus retroflexus [34] = test: Post-emergence herbicidal activity against one-leaf stage Amaranthus retroflexus under greenhouse condition assessed as complete bleaching of leaves at 300 g /ha measured after 24 days by spray method; assay type: functional, organism-based
# [35] = system: Brassica rapa subsp. oleifera; test: Post-emergence herbicidal activity against one-leaf stage Brassica rapa subsp. oleifera under greenhouse condition at 150 g /ha measured after 24 days by spray method; assay type: functional; conditions: 576 h, read-out: GI
# Amaranthus retroflexus [36] = test: Post-emergence herbicidal activity against one-leaf stage Amaranthus retroflexus under greenhouse condition at 150 g /ha measured after 24 days by spray method; assay type: functional; conditions: 576 h, read-out: GI
# [37] = system: Brassica rapa subsp. oleifera; test: Post-emergence herbicidal activity against one-leaf stage Brassica rapa subsp. oleifera under greenhouse condition assessed as complete bleaching of leaves at 150 g /ha measured after 24 days by spray method; assay type: functional, organism-based
# [38] = system: Brassica rapa subsp. oleifera; test: Pre-emergence herbicidal activity against Brassica rapa subsp. oleifera under greenhouse condition at 750 g /ha measured after 24 days by spray method; assay type: functional; conditions: 576 h, read-out: GI
# Amaranthus retroflexus [39] = test: Post-emergence herbicidal activity against one-leaf stage Amaranthus retroflexus under greenhouse condition at 300 g /ha measured after 24 days by spray method; assay type: functional; conditions: 576 h, read-out: GI
# Echinochloa crus-galli [40] = test: Post-emergence herbicidal activity against one-leaf stage of Echinochloa crus-galli (barnyard grass) under greenhouse condition at 750 g /ha measured after 24 days by spray method; assay type: functional; conditions: 576 h, read-out: GI
# Amaranthus retroflexus [41] = test: Post-emergence herbicidal activity against one-leaf stage Amaranthus retroflexus under greenhouse condition at 15 g /ha measured after 24 days by spray method; assay type: functional; conditions: 576 h, read-out: GI
# Amaranthus retroflexus [42] = test: Post-emergence herbicidal activity against one-leaf stage Amaranthus retroflexus under greenhouse condition at 75 g /ha measured after 24 days by spray method; assay type: functional; conditions: 576 h, read-out: GI
compound,measurement,setting,value
Cc1cc(-c2cccc(C(F)(F)F)c2)c(Oc2ccc(Cl)c(Cl)c2)nn1,Activity,Amaranthus retroflexus [1],Active
same,inhibition of growth at 30 g/ha,[2],100%
same,inhibition of growth at 750 g/ha,Echinochloa crus-galli [3],19%
same,inhibition of growth at 60 g/ha,Amaranthus retroflexus [4],47%
same,inhibition of growth at 600 g/ha,[5],100%
same,inhibition of growth at 750 g/ha,Digitaria [6],6%
same,inhibition of growth at 30 g/ha,Amaranthus retroflexus [7],42%
same,Activity,Amaranthus retroflexus [8],Active
same,inhibition of growth at 750 g/ha,Amaranthus retroflexus [9],100%
same,Activity,[10],Active
same,inhibition of growth at 300 g/ha,[11],100%
same,inhibition of growth at 7.5 g/ha,[12],58%
same,Activity,[13],Active
same,inhibition of growth at 750 g/ha,[14],100%
same,Activity,Amaranthus retroflexus [15],Active
same,inhibition of growth at 60 g/ha,[16],100%
same,inhibition at 1 µg/mL,Spirodela polyrhiza [17],93%
same,inhibition of growth at 15 g/ha,[18],89%
same,inhibition of growth at 75 g/ha,[19],100%
same,Activity,Amaranthus retroflexus [20],Active
same,Activity,[21],Active
same,inhibition of growth at 7.5 g/ha,Amaranthus retroflexus [22],32%
same,Activity,[23],Active
same,inhibition of growth at 600 g/ha,Amaranthus retroflexus [24],100%
same,Activity,[25],Active
same,inhibition at 10 µg/mL,Spirodela polyrhiza [26],96%
same,Activity,Amaranthus retroflexus [27],Active
same,Activity,Amaranthus retroflexus [28],Active
same,inhibition of growth at 750 g/ha,Digitaria [29],100%
same,Activity,Amaranthus retroflexus [30],Active
same,Activity,[31],Active
same,inhibition of growth at 750 g/ha,Amaranthus retroflexus [32],0%
same,Activity,[33],Active
same,Activity,Amaranthus retroflexus [34],Active
same,inhibition of growth at 150 g/ha,[35],100%
same,inhibition of growth at 150 g/ha,Amaranthus retroflexus [36],100%
same,Activity,[37],Active
same,inhibition of growth at 750 g/ha,[38],27%
same,inhibition of growth at 300 g/ha,Amaranthus retroflexus [39],100%
same,inhibition of growth at 750 g/ha,Echinochloa crus-galli [40],87%
same,inhibition of growth at 15 g/ha,Amaranthus retroflexus [41],34%
same,inhibition of growth at 75 g/ha,Amaranthus retroflexus [42],85%
Cc1cc(-c2cccc(C(F)(F)F)c2)c(Oc2ccc(C#N)cc2)nn1,Activity,Amaranthus retroflexus [1],Active
same,inhibition of growth at 30 g/ha,[2],57%
same,inhibition of growth at 750 g/ha,Echinochloa crus-galli [3],91%
same,inhibition of growth at 60 g/ha,Amaranthus retroflexus [4],42%
same,inhibition of growth at 600 g/ha,[5],99%
same,inhibition of growth at 750 g/ha,Digitaria [6],99%
same,inhibition of growth at 30 g/ha,Amaranthus retroflexus [7],38%
same,Activity,Amaranthus retroflexus [8],Active
same,inhibition of growth at 750 g/ha,Amaranthus retroflexus [9],100%
same,Activity,[10],Active
same,inhibition of growth at 300 g/ha,[11],98%
same,inhibition of growth at 7.5 g/ha,[12],41%
same,Activity,[13],Active
same,inhibition of growth at 750 g/ha,[14],96%
same,Activity,Amaranthus retroflexus [15],Active
same,inhibition of growth at 60 g/ha,[16],89%
same,inhibition at 1 µg/mL,Spirodela polyrhiza [17],87%
same,inhibition of growth at 15 g/ha,[18],47%
same,inhibition of growth at 75 g/ha,[19],90%
same,Activity,Amaranthus retroflexus [20],Active
same,Activity,[21],Active
same,inhibition of growth at 7.5 g/ha,Amaranthus retroflexus [22],34%
same,Activity,[23],Active
same,inhibition of growth at 600 g/ha,Amaranthus retroflexus [24],100%
same,Activity,[25],Active
same,inhibition at 10 µg/mL,Spirodela polyrhiza [26],93%
same,Activity,Amaranthus retroflexus [27],Active
same,Activity,Amaranthus retroflexus [28],Active
same,inhibition of growth at 750 g/ha,Digitaria [29],99%
same,Activity,Amaranthus retroflexus [30],Active
same,Activity,[31],Active
same,inhibition of growth at 750 g/ha,Amaranthus retroflexus [32],99%
same,Activity,[33],Active
same,Activity,Amaranthus retroflexus [34],Active
same,inhibition of growth at 150 g/ha,[35],95%
same,inhibition of growth at 150 g/ha,Amaranthus retroflexus [36],100%
same,Activity,[37],Active
same,inhibition of growth at 750 g/ha,[38],100%
same,inhibition of growth at 300 g/ha,Amaranthus retroflexus [39],100%
same,inhibition of growth at 750 g/ha,Echinochloa crus-galli [40],83%
same,inhibition of growth at 15 g/ha,Amaranthus retroflexus [41],37%
same,inhibition of growth at 75 g/ha,Amaranthus retroflexus [42],99%

# — ChEMBL document CHEMBL3045111, “Synthesis and herbicidal activities of novel 3-(substituted benzyloxy or phenoxy)-6-methyl-4-(3-trifluoromethylphenyl)pyridazine derivatives” (2012)
